Test results: PubChem BioAssay (NCI)
Values joined by “and” are separate entries in the source; they are usually repeats but may differ in a detail not shown here. Equal entries are not always repeated.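 A five-concentration, 48-hour dose response in 96-well plates underlies each endpoint, interpolated linearly between surrounding concentrations. Abbreviation: GI50, concentration required for 50% inhibition of growth. Definition used: TGI = concentration required for complete inhibition of growth.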

What was measured:
Test in all cases: NCI anticancer screen, dose series, 48 h
ACHN renal = tested on: ACHN renal
NCI-H23 lung = tested on: NCI-H23 lung
NCI-H460 lung = tested on: NCI-H460 lung
SK-MEL-28 melanoma = tested on: SK-MEL-28 melanoma
SNB-19 CNS = tested on: SNB-19 CNS
SNB-75 CNS = tested on: SNB-75 CNS
SW-620 colon = tested on: SW-620 colon
TK-10 renal = tested on: TK-10 renal
UACC-62 melanoma = tested on: UACC-62 melanoma
UO-31 renal = tested on: UO-31 renal

Row | SMILES | TGI (ACHN renal) | TGI (NCI-H23 lung) | TGI (NCI-H460 lung) | TGI (SK-MEL-28 melanoma) | TGI (SNB-19 CNS) | TGI (SNB-75 CNS) | TGI (SW-620 colon) | TGI (TK-10 renal) | TGI (UACC-62 melanoma) | TGI (UO-31 renal) | GI50 (SK-MEL-28 melanoma) | GI50 (SNB-75 CNS) | GI50 (TK-10 renal)
1 | NCCCCNC1(c2cc3ccccc3s2)CCCCC1 | 23.2 µM | 28.9 µM | 7.42 µM | 3.81 µM | 21.1 µM | 9.9 µM | 14.6 µM | 10.4 µM | 3.79 µM | 9.94 µM |  |  | 
2 | O=C(/C=C/c1ccccc1O)/C=C/c1ccccc1O | 3.35 µM | 3.84 µM | 3.08 µM | 3.67 µM | 4.86 µM | 19.5 µM | 4.36 µM | 3.27 µM | 3.31 µM | 3.59 µM |  |  | 
3 | CN(C)CC(NC(NCS)C(=O)NCCNc1ccc(NCCNC(=O)C(NCS)NC(CN(C)C)OCCl)c2c1C(=O)c1c(O)ccc(O)c1C2=O)OCCl (configuration not stated) | 0.194 µM | 0.111 µM | 0.944 µM |  | 1.96 µM | 1.77 µM and 0.99 µM | 1.25 µM | 2.44 µM | 1.6 µM | 1.52 µM | 2180 nM | 38.7 nM | 340 nM
4 | CN1CCCCC(C(O)(c2ccccc2)c2ccccc2)C1=O (configuration not stated) | > 100 µM | > 100 µM | > 100 µM | > 100 µM | > 100 µM | > 100 µM | 25.9 µM | > 100 µM | > 100 µM | > 100 µM |  |  | 
5 | CC(=O)NC1=C(C)C(=O)c2c(nc3n2CC[C@H]3OC(C)=O)C1=O | 9.34 µM | 8.41 µM | 9.11 µM | 5.16 µM | 10.8 µM | 9.18 µM | 3.26 µM | 13.9 µM | 3.77 µM | 6.78 µM |  |  | 
6 | CC(C)(NC1=NCCO1)c1ccccc1 | > 100 µM | > 100 µM | > 100 µM | > 100 µM | > 100 µM | > 100 µM | > 100 µM | > 100 µM | > 100 µM | > 100 µM |  |  | 
7 | Cc1cc([N+](=O)[O-])ccc1N=NC(=O)NNc1ccc([N+](=O)[O-])cc1C | 29.4 µM | 41.8 µM | 33.4 µM | 29.9 µM | 37.8 µM | 34.7 µM | 33.7 µM | 31.5 µM | 26.3 µM | 25.2 µM |  |  | 
8 | NC(=O)NCCCC(NC(=O)OCCCCCn1ccc(=O)[nH]c1=O)C(=O)O (configuration not stated) | > 100 µM | > 100 µM | > 100 µM | > 100 µM | > 100 µM | > 100 µM | > 100 µM | > 100 µM | > 100 µM | > 100 µM |  |  | 
9 | COC(=O)CCN(CCC(=O)OC)C1CC1 | > 100 µM | > 100 µM | > 100 µM | > 100 µM | > 100 µM | > 100 µM | > 100 µM | > 100 µM | > 100 µM | > 100 µM |  |  | 
10 | Cc1cc(N=C2C=C(Nc3cc(C)on3)C(=O)c3ccccc32)no1 | > 100 µM | 26 µM | > 100 µM | > 100 µM | > 100 µM | > 87.8 µM | > 100 µM | > 100 µM | 38.4 µM | > 100 µM |  |  | 
11 | CN(C)CCn1c(=O)c2ccc3c4c(nn3CCN(C)C)c3ccccc3n(c1=O)c24 | 0.765 µM | 1.42 µM | 0.417 µM | 6.46 µM | 3.75 µM | 0.145 µM | 32 µM | 2.35 µM | 1.34 µM | 2.42 µM |  |  | 
12 | Nc1nc(SCCC/C=C/I)nc2c1ncn2C1OC(CO)C(O)C1O (configuration not stated) | > 202 µM | > 202 µM | > 202 µM | > 202 µM | > 202 µM | > 202 µM | > 202 µM | > 202 µM | > 202 µM | > 202 µM |  |  | 
13 | Cc1nnc2sc(N/N=C/c3ccccc3)nn12 | > 100 µM | > 100 µM | > 100 µM | > 100 µM | > 100 µM | > 100 µM | > 100 µM | > 100 µM | > 100 µM | > 100 µM |  |  | 
14 | CC(C)(C)OC(=O)NCC(=O)N1CCCN(C(=O)CNC(=O)OC(C)(C)C)CC1 | > 100 µM | > 100 µM | > 100 µM | > 100 µM | > 100 µM | > 100 µM | > 100 µM | > 100 µM | > 100 µM | > 100 µM |  |  | 
15 | CN(C)CCOC1(CC2CCCCC2)CCC(C(C)(C)C)CC1 (configuration not stated) | 20 µM | 21.8 µM | 9.65 µM | 12.3 µM | 21.9 µM | 19.1 µM | 12.7 µM | 25.5 µM | 20.3 µM | 15.6 µM |  |  | 
16 | O=[N+]([O-])c1ccc(Cl)cc1C=NC12CC3CC(CC(C3)C1)C2 | > 100 µM | 98.1 µM | > 100 µM | > 100 µM | > 100 µM | > 100 µM | > 100 µM | > 100 µM | > 100 µM | > 100 µM |  |  | 
